Data published in patent US10772840B2 (Charleston Laboratories, Inc., priority 2016, dated 2020).

Legend:
[1] = Impurity profile (related substances) by HPLC, initial and after one month at 40° C. (stability study); format: physicochemical; settings: HPLC percent area
Description: The percentages of related substances were measured using an HPLC.
Stock promethazine HCl selectivity solution was prepared by accurately weighing about 2 mg of EP promethazine for peak identification CRS and transferring into 1 mL of diluent (prepared by mixing 750 mL of mobile phase A and 250 mL of acetonitrile), followed by vortexing to dissolve.
Ten capsules were randomly selected and weighed. The contents of the ten capsules were emptied into a 500 mL volumetric flask. 300 mL of diluent was added and the mixture was sonicated in an ice bath for 40 minutes or until completely disintegrated with intermittent swirling. The temperature was equilibrated to room temperature and more diluent was added to volume.
Promethazine HCl impurity sample solution: stock solution sample was filtered through a 0.45 μm PVDF membrane, syringe filter or a 0.45 μm PTFE w/GMF membrane, syringe filter discarding the first 5 mL and collecting approximately 20 mL into an appropriate glass container. Fill an HPLC vial with the filtrate
The RT of the promethazine in the promethazine HCl selectivity solution is between 44.1 and 53.9.
Mobile Phase B: 0.2% TFA in Acetonitrile, which was prepared by mixing well 2.0 ml of trifluoroacetic acid to 1 L of acetonitrile; and Gradient used was as follows in Table 15.
All known and unknown impurities were calculated via percent area as follow:
[formula] Where: • Ru=Peak area of related substance in the sample solution • Rt=Sum of peak area of promethazine or sumatriptan and all related substances areas corresponding to respective peak in sample solution • RRF=Relative Response Factor for related substances
The formulation was examined for its stability after one month at 40° C.

[2] = Dissolution measurement by USP Apparatus 2 (Paddle Apparatus), HPLC analysis; format: physicochemical; settings: in a capsule, 500 ml 0.1 N HCl pH 1.1, N=6
Description: Dissolution studies were conducted to measure the rates of dissolution of active ingredients using a USP Apparatus 2 (Paddle Apparatus) with a dissolution fluid of 500 ml deaerated 0.1 N HCl (i.e., pH 1.1) at 37.0+/−0.5° C. Dissolution samples were analyzed by HPLC.
Dissolution medium of 0.1N HCl was prepared by mixing approximately 85 ml of concentrated (12N) Hydrochloric Acid with 10 L of water. Stock promethazine HCl standard solution was prepared by adding approximately 30 ml of dissolution medium to 25.0 mg of dried Promethazine Hydrochloride USP reference standard in a 50 ml volumetric flash, diluted to volume with dissolution media, and mixed well. […] The resulting solution is diluted to volume with dissolution medium and mixed well.
The dissolution apparatus used is USP Apparatus 2 (Paddle Apparatus) with a speed of 50 rpm at 37.0° C.±0.5° C. Dissolution medium (500 ml) was Helium sparged for at least 10 minutes. N=6 samples were tested. Sample time point of 5, 10, 15, 20, 30, 45, 60, and 90 minutes (final time point at 250 rpm). Filters: QLA 10 μm in-line full flow porous filter or equivalent; chromafil 1.0 μm on-line glass fiber membrane filter or equivalent.
The dissolution apparatus was assembled and the paddle was positioned so that the distance between its lower edge and the lower inner surface of the vessel is within 25 mm±2 mm throughout the test. This step was repeated for each of the six vessels. The speed (50 rpm) and the temperature (37.0° C.±0.5° C.) were set. 500 mL of 0.1N HCl solution were placed into each of the six vessels, previously degassed via helium purge, degassed using degasser or other suitable means. The Dissolution medium was equilibrated to set temperature and the temperature of the dissolution medium was checked with a thermometer or thermocouple before starting the dissolution. Each of the six (6) capsules were accurately weighed and the weight was recorded. The dissolution test was started. Each capsule was dropped with sinker into vessels noting the station assigned to each recorded capsule weight. The shaft was rotated at 50 rpm. Samples were withdrawn by dissolution auttosampler at 5, 10, 15, 20, 30, 45, 60, and 90 minutes into HPLC vials, or were withdraw manually. Filters (QLA 10 μm in-line full flow porous filter or equivalent; chromafil 1.0 μm on-line glass fiber membrane filter or equivalent) were utilized, discarding at least the first 5 mL of the filtrate, and clear filtrate was transfered into HPLC vials. After withdrawing samples at the 60 minute time point, the paddle rotation speed was increased to 250 rpm until the next time point of 90 minutes.
HPLC conditions: Flow rate: 1.0 ml/min; Injection Volume: 10 μL; Column Temperature: 40° C.±2° C.; Wavelengths: 240 nm; Run Time: 7 minutes; Mobile Phase A was 0.2% TFA in Water, which was prepared by mixing well 2.0 ml of trifluoroacetic acid with 1 L of water. Mobile Phase B: 0.2% TFA in Acetonitrile, which was prepared by mixing well 2.0 ml of trifluoroacetic acid to 1 L of acetonitrile; and Gradient used was as follows in Table 8.
If a Water® dissolution autosampler was utilized, then the Empower Dissolution Software was used to calculate the profile. Calculation are performed using a validated excel spreadsheet. When the sample was performed manually, the volume correction was considered for the calculation.

[3] = after 1 month store at 40° C., 5 min, 50 rpm
[4] = after 1 month store at 40° C., 10 min, 50 rpm
[5] = after 1 month store at 40° C., 15 min, 50 rpm
[6] = after 1 month store at 40° C., 20 min, 50 rpm
[7] = after 1 month store at 40° C., 30 min, 50 rpm
[8] = after 1 month store at 40° C., 45 min, 50 rpm
[9] = after 1 month store at 40° C., 60 min, 50 rpm
[10] = after 1 month store at 40° C., 90 min (250 rpm after 60 min)
[11] = large batch, 90 min (250 rpm after 60 min)

Impurity percentages, all related substances combined ([1]; in a capsule stored at 40° C. for 1 month): None Detected | Impurity percentages, all related substances combined ([1]; in a capsule, initial (before storage)): 0.1% | Dissolution (% release), Max. [2, 3]: 77 | Dissolution (% release), Mean [2, 3]: 60 | Dissolution (% release), Min. [2, 3]: 47 | Dissolution (% release), Max. [2, 4]: 89 | Dissolution (% release), Mean [2, 4]: 76 | Dissolution (% release), Min. [2, 4]: 62 | Dissolution (% release), Max. [2, 5]: 91 | Dissolution (% release), Mean [2, 5]: 81 | Dissolution (% release), Min. [2, 5]: 69 | Dissolution (% release), Max. [2, 6]: 94 | Dissolution (% release), Mean [2, 6]: 85 | Dissolution (% release), Min. [2, 6]: 74 | Dissolution (% release), Max. [2, 7]: 95 | Dissolution (% release), Mean [2, 7]: 88 | Dissolution (% release), Min. [2, 7]: 80 | Dissolution (% release), Max. [2, 8]: 97 | Dissolution (% release), Mean [2, 8]: 91 | Dissolution (% release), Min. [2, 8]: 84 | Dissolution (% release), Max. [2, 9]: 98 | Dissolution (% release), Mean [2, 9]: 93 | Dissolution (% release), Min. [2, 9]: 86 | Dissolution (% release), Max. [2, 10]: 100 | Dissolution (% release), Mean [2, 10]: 98 | Dissolution (% release), Min. [2, 10]: 96 | Dissolution (% release), Max. ([2]; large batch, 5 min, 50 rpm): 73 | Dissolution (% release), Mean ([2]; large batch, 5 min, 50 rpm): 66 | Dissolution (% release), Min. ([2]; large batch, 5 min, 50 rpm): 56 | Dissolution (% release), Max. ([2]; large batch, 10 min, 50 rpm): 86 | Dissolution (% release), Mean ([2]; large batch, 10 min, 50 rpm): 80 | Dissolution (% release), Min. ([2]; large batch, 10 min, 50 rpm): 73 | Dissolution (% release), Max. ([2]; large batch, 15 min, 50 rpm): 89 | Dissolution (% release), Mean ([2]; large batch, 15 min, 50 rpm): 85 | Dissolution (% release), Min. ([2]; large batch, 15 min, 50 rpm): 81 | Dissolution (% release), Max. ([2]; large batch, 20 min, 50 rpm): 91 | Dissolution (% release), Mean ([2]; large batch, 20 min, 50 rpm): 88 | Dissolution (% release), Min. ([2]; large batch, 20 min, 50 rpm): 84 | Dissolution (% release), Max. ([2]; large batch, 30 min, 50 rpm): 93 | Dissolution (% release), Mean ([2]; large batch, 30 min, 50 rpm): 90 | Dissolution (% release), Min. ([2]; large batch, 30 min, 50 rpm): 87 | Dissolution (% release), Max. ([2]; large batch, 45 min, 50 rpm): 95 | Dissolution (% release), Mean ([2]; large batch, 45 min, 50 rpm): 93 | Dissolution (% release), Min. ([2]; large batch, 45 min, 50 rpm): 91 | Dissolution (% release), Max. ([2]; large batch, 60 min, 50 rpm): 96 | Dissolution (% release), Mean ([2]; large batch, 60 min, 50 rpm): 94 | Dissolution (% release), Min. ([2]; large batch, 60 min, 50 rpm): 92 | Dissolution (% release), Max. [2, 11]: 98 | Dissolution (% release), Mean [2, 11]: 98 | Dissolution (% release), Min. [2, 11]: 97
SMILES: CNS(=O)(=O)Cc1ccc2[nH]cc(CCN(C)C)c2c1 [Sumatriptan, Sumatriptan succinate]
